From paper PMC11273930, “Bioactive Bioxanthracene and Cyclodepsipeptides from the Entomopathogenic Fungus Blackwellomyces roseostromatus BCC56290” (Antibiotics, 2024)
Converted amounts (≈) assume the structure as drawn. “And” between values parts separate entries of the source, which are not always exact repeats. Equal entries are not always repeated. Where two headings read alike, the source gives them in different places. Where a SMILES comes first, the peptide text is derived from it. [ ]: non-standard residue; d: D form. PhLac = O=C(O)[C@@H](O)Cc1ccccc1; NMeA = CN[C@@H](C)C(=O)O

What was measured:
[1] = tested on: L929 (murine) mouse fibroblasts; test: Cytotoxicity (MTT) assay; assay type: cell-based
Protocol: (§1) In vitro cytotoxic activity of the isolated compounds was tested by applying the MTT (3-(4,5-dimethylthiayol-2-yl)-2,5-diphenyltetrazolium bromide) assay as previously reported. The mammalian cell lines used in the tests were sourced from DSMZ and included mouse fibroblasts (L929) and endocervical adenocarcinoma (KB3.1), human lung carcinoma (A549), breast adenocarcinoma (MCF-7), human ovarian cancer (SKOV-3), prostate carcinoma (PC-3), and epidermoid carcinoma cells (A431).

[2] = tested on: KB3.1 (cervix) endocervical adenocarcinoma; assay type: cell-based, human
Protocol: as §1

[3] = tested on: Acinetobacter baumanii (DSM 30008); test: Antimicrobial assay (MIC); assay type: cell-based; design: key: -: no inhibition observed
Protocol: (§2) The antimicrobial activity of the isolated secondary metabolites was determined using our established protocol, against clinically relevant microorganisms obtained from the German Collection of Microorganisms and Cell Cultures (DSMZ, Braunschweig, Germany). These included Staphylococcus aureus (DSM 346), Bacillus subtilis (DSM 10), Acinetobacter baumanii (DSM 30008), Escherichia coli (DSM 1116), Chromobacterium violaceum (DSM 30191), Pseudomonas aeruginosa (PA14), Mycolicibacterium smegmatis (ATCC 700084), Candida albicans (DSM 1665), Mucor hiemalis (DSM 2656), Rhodotorula glutinis (DSM 10134), Schizosaccharomyces pombe (DSM 70572) and Pichia anomala (DSM 6766). Nystatin was used as an antifungal positive control whereas oxytetracycline, ciprofloxacin, gentamicin, and kanamycin were used as positive controls against Gram-positive and Gram-negative bacteria.

[4] = tested on: Bacillus subtilis (DSM 10); test: Antimicrobial assay (MIC); assay type: cell-based; design: key to MIC (µg/mL): -: no inhibition observed
Protocol: as §2

[5] = tested on: Candida albicans (DSM 1665); test: Antimicrobial assay (MIC); assay type: cell-based; design: key to MIC (µg/mL): -: no inhibition observed
Protocol: as §2

[6] = tested on: Chromobacterium violaceum (DSM 30191); test: Antimicrobial assay (MIC); assay type: cell-based; design: key to MIC (µg/mL): -: no inhibition observed
Protocol: as §2

[7] = tested on: Escherichia coli (DSM 1116); test: Antimicrobial assay (MIC); assay type: cell-based; design: key to MIC (µg/mL): -: no inhibition observed
Protocol: as §2

[8] = tested on: Mucor hiemalis (DSM 2656); test: Antimicrobial assay (MIC); assay type: cell-based; design: key to MIC (µg/mL): -: no inhibition observed
Protocol: as §2

[9] = tested on: Mycobacterium smegmatis (ATCC 700084); test: Antimicrobial assay (MIC); assay type: cell-based; design: key to MIC (µg/mL): -: no inhibition observed
Protocol: as §2

[10] = tested on: Pichia anomala (DSM 6766); test: Antimicrobial assay (MIC); assay type: cell-based; design: key to MIC (µg/mL): -: no inhibition observed
Protocol: as §2

[11] = tested on: Pseudomonas aeruginosa (PA14); test: Antimicrobial assay (MIC); assay type: cell-based; design: key to MIC (µg/mL): -: no inhibition observed
Protocol: as §2

[12] = tested on: Rhodotorula glutinis (DSM 10134); test: Antimicrobial assay (MIC); assay type: cell-based; design: key to MIC (µg/mL): -: no inhibition observed
Protocol: as §2

[13] = tested on: Schizosaccharomyces pombe (DSM 70572); test: Antimicrobial assay (MIC); assay type: cell-based; design: key to MIC (µg/mL): -: no inhibition observed
Protocol: as §2

[14] = tested on: Staphylococcus aureus (DSM 346); test: Antimicrobial assay (MIC); assay type: cell-based; design: key to MIC (µg/mL): -: no inhibition observed
Protocol: as §2

Caenorhabditis elegans = test: Nematicidal activity assay; assay type: in vivo; conditions: 18 h
Protocol: The nematicidal activity assay was conducted following a previously described procedure with slight modifications. C. elegans was cultured on nematode growth medium (NGM) containing 3 g NaCl, 20 g agar, 2.5 g peptone, 1 mL 1 M CaCl2, 25 mL of 1 M (pH 6.0) KPO4, 1 mL 1 M MgSO4, and 1 mL cholesterol (5 mg/mL in ethanol) per liter of medium. Plates were coated with Escherichia coli strain OP50, which served as the food source for nematodes. Synchronization of the nematode population was performed using a high egg density plate (~120 h). The plate was rinsed three times with 4 mL of 0.9% NaCl solution and then transferred to a 15 mL falcon tube. The nematode suspension was centrifuged at 1000 rpm for 3 min, and the supernatant was discarded. This procedure was repeated until a clear nematode suspension was obtained. After the last washing step, 2 mL of the suspension was mixed with 5 mL of bleaching solution (1 mL sodium hypochlorite solution, 0.5 mL 5 M NaOH, and 3.5 mL Milli-Q water). The solution was gently shaken for approximately 5 min to break down the nematode tissue, and monitored under the microscope. The reaction was stopped by adding 7 mL 0.9% NaCl solution when traces of adults were still visible. Subsequently, the suspension was centrifuged at 2500 rpm for 2 min and washed 3 times as previously described. After the final washing step, the supernatant was removed, and the volume was adjusted to 7 mL with 0.9% NaCl solution. The nematode egg suspension was incubated at 23 °C on a rotary shaker at 80 rpm for 18 h. The hatched nematodes were transferred to a fresh NGM plate supplemented with E.coli OP50. After 50–70 h, the J4 and adult C. elegans were washed from the plate as mentioned above. The nematode concentration was determined and diluted to approximately 1000 nematodes/mL.
Pure compounds were tested at concentrations of 10, 50, and 100 μg/mL in 48-well microtiter plates. The compounds, dissolved in MeOH, were added to the well plate and subsequently dried under nitrogen. After complete evaporation of the solvent, 300 μL of the nematode suspension (1000 nematodes/mL) was added to the compounds. Each treatment was replicated three times. MeOH was used as the negative control while 1 μg/mL Ivermectin served as the positive control. Nematodes were monitored 15 min after inoculation, and the plates were incubated at 24 °C and 150 rpm for 18 h. After incubation, both alive and dead nematodes were counted in three replicates under a stereomicroscope, and the mortality rate was calculated. Erect and non-moving nematodes were considered dead. […] The observed percentage of dead nematodes was corrected by considering the natural mortality observed in the negative control, using the Schneider-Orelli formula [30].

[15] = tested on: A431 (skin) epidermoid carcinoma cells; test: Cytotoxicity (MTT) assay; assay type: cell-based; conditions: Homo sapiens, A-431, read-out: IC50, Positive Control Epothilone B (nM)
Protocol: as §1, with “(A431). Epothilone B was used as the positive control.” for “(A431).”

[16] = tested on: A549 (lung) human lung carcinoma; test: Cytotoxicity (MTT) assay; assay type: cell-based; conditions: A549, read-out: IC50, Positive Control Epothilone B (nM)
Protocol: as §1, with “(A431). Epothilone B was used as the positive control.” for “(A431).”

[17] = tested on: MCF-7 (breast) adenocarcinoma; test: Cytotoxicity (MTT) assay; assay type: cell-based; conditions: Homo sapiens, MCF7, read-out: IC50, Positive Control Epothilone B (nM)
Protocol: as §1, with “(A431). Epothilone B was used as the positive control.” for “(A431).”

[18] = tested on: PC-3 (prostate) carcinoma; test: Cytotoxicity (MTT) assay; assay type: cell-based; conditions: Homo sapiens, read-out: IC50, Positive Control Epothilone B (nM)
Protocol: as §1, with “(A431). Epothilone B was used as the positive control.” for “(A431).”

[19] = MTT assay, KB3.1 (cervix), read-out: IC50
[20] = 10 µg/mL, J4 and adult C. elegans, 24 °C, corrected by Schneider-Orelli formula vs methanol control, mean ± SD (n ≥ 3), < 0: less active than negative control
[21] = 50 µg/mL, J4 and adult C. elegans, 24 °C, corrected by Schneider-Orelli formula vs methanol control, mean ± SD (n ≥ 3)
[22] = 100 µg/mL, J4 and adult C. elegans, 24 °C, corrected by Schneider-Orelli formula vs methanol control, mean ± SD (n ≥ 3)

Compound | IC50 [1] | IC50 [2, 19] | MIC (µg/mL) [3] | MIC (µg/mL) [4] | MIC (µg/mL) [5] | MIC (µg/mL) [6] | MIC (µg/mL) [7] | MIC (µg/mL) [8] | MIC (µg/mL) [9] | MIC (µg/mL) [10] | MIC (µg/mL) [11] | MIC (µg/mL) [12] | MIC (µg/mL) [13] | MIC (µg/mL) [14] | Corrected mortality rate (%) (Caenorhabditis elegans; [20]) | Corrected mortality rate (%) (Caenorhabditis elegans; [21]) | Corrected mortality rate (%) (Caenorhabditis elegans; [22]) | further results
3S,4S-HMDA-L-Trp^1-L-Trp^2-L-Phe (lariat or depsi) [Compound 3, Beauveriolide U, previously undescribed cyclic tetradepsipeptide, HMDA-Trp-Trp-Phe, C42H49N5O5] | > 35 µM | > 35 µM | - | - | - | - | - | - | - | - | - | - | - | - | < 0% | 6.0 ± 1.5% | 32.1 ± 7.0% | 
CC(C)C[C@@H]1NC(=O)[C@H](Cc2ccccc2)OC(=O)[C@H](C)N(C)C(=O)[C@H](CC(C)C)NC(=O)[C@H](Cc2ccccc2)NC(=O)[C@H](C)N(C)C1=O [Compound 4, Cardinalisamide D] (cyclo([PhLac]L[NMeA]FL[NMeA])) | > 35 µM |  | - | - | - | - | - | - | - | - | - | - | - | - | 13.7 ± 5.2% | 14.2 ± 4.9% | 23.4 ± 7.4% | IC50 [2]: 36.2 µM
C/C(=C\c1csc(C)n1)[C@@H]1C[C@@H]2O[C@]2(C)CCC[C@H](C)[C@H](O)[C@@H](C)C(=O)C(C)(C)[C@@H](O)CC(=O)O1 [Epothilone B] |  |  |  |  |  |  |  |  |  |  |  |  |  |  |  |  |  | IC50 [15]: 0.06 nM; IC50 [16]: 0.05 nM; IC50 [17]: 0.07 nM; IC50 [18]: 0.09 nM
CNC(C)C1CCC(N)C(OC2C(N)CC(N)C(OC3OCC(C)(O)C(NC)C3O)C2O)O1 (stereo not drawn) [Gentamycin, reference compound] |  |  |  |  |  |  |  |  |  |  |  |  |  |  |  |  |  | MIC ([6]; DSM30191): 1.7 µg/mL (≈ 3.56 µM); MIC ([7]; DSM1116): 0.83 µg/mL (≈ 1.74 µM); MIC [11]: 0.42 µg/mL (≈ 0.879 µM); MIC ([14]; DSM346): 0.42 µg/mL (≈ 0.879 µM)
NC[C@H]1O[C@H](O[C@H]2[C@H](O)[C@@H](O[C@H]3O[C@H](CO)[C@@H](O)[C@H](N)[C@H]3O)[C@H](N)C[C@@H]2N)[C@H](O)[C@@H](O)[C@@H]1O [Kanamycin, reference compound] |  |  |  |  |  |  |  |  |  |  |  |  |  |  |  |  |  | MIC [9]: 0.1 µg/mL (≈ 0.206 µM)
C[C@@H]1[C@H](O)[C@@H](C)/C=C/C=C/CC/C=C/C=C/C=C/C=C/C(O[C@H]2O[C@H](C)[C@@H](O)[C@H](N)[C@@H]2O)CC2O[C@](O)(CC(O)C(O)CCC(O)CC(O)CC(O)CC(=O)O[C@H]1C)CC(O)C2C(=O)O (stereo partly drawn) [Nystatin, reference compound] |  |  |  |  |  |  |  |  |  |  |  |  |  |  |  |  |  | MIC [5]: 2.1 µg/mL (≈ 2.27 µM); MIC [8]: 4.2 µg/mL (≈ 4.54 µM); MIC [10]: 4.2 µg/mL (≈ 4.54 µM); MIC [12]: 1.0 µg/mL (≈ 1.08 µM); MIC [13]: 2.1 µg/mL (≈ 2.27 µM)
CN(C)[C@@H]1C(O)=C(C(N)=O)C(=O)[C@@]2(O)C(O)=C3C(=O)c4c(O)cccc4[C@@](C)(O)[C@H]3[C@H](O)[C@@H]12 [Oxytetracyclin, reference compound] |  |  |  |  |  |  |  |  |  |  |  |  |  |  |  |  |  | MIC ([4]; DSM10): 16.6 µg/mL (≈ 36.1 µM)
ES-242-9 [Compound 1] | > 35 µM | 29.2 µM | - | - | - | - | - | - | - | - | - | - | - | - | 33.4 ± 5.3% | 31.7 ± 7.1% | 51.1 ± 5.3% and 51.1% | 
HMDA-Trp-Ala-Phe (lariat or depsi) [Compound 2, Beauveriolide T] | > 35 µM | > 35 µM | - | - | - | - | - | - | - | - | - | - | - | - | 11.6 ± 6.4% | 33.1 ± 6.7% | 36.1 ± 7.3% | 
Ivermectin [reference compound] |  |  |  |  |  |  |  |  |  |  |  |  |  |  |  |  |  | Corrected mortality rate (%) (Caenorhabditis elegans; 1 µg/mL, positive control, C. elegans, corrected mortality, mean ± SD): 87.4 ± 6.5%
